Consider four substances from patent US20210061684A1 (HIYOSHI CORPORATION, priority 2018, published 2021).

Like-named read-outs stand apart in the source and are kept apart here.

Experiment [1] concerns Legionella.
Experiment [2] has as its system Legionella. This is another data set of the same source.

Regarding ammonium iron (II) sulfate hexahydrate, in experiment [1], the “effect on Legionella at low concentration” value (shortened to “effect on Legionella”) is listed as “a sufficient effect was obtained” and the “growth of Legionella” value is given as “greatly suppressed”.
The corresponding values for “ammonium iron (III) sulfate dodecahydrate” are “a sufficient effect was obtained” and “greatly suppressed”.
With iron (II) sulfate heptahydrate, in experiment [2], the “effect on Legionella” value was “an effect was obtained” and the “growth of Legionella” value is “greatly suppressed”. Moreover, in experiment [1], the “decrease of the number of bacteria” value is “at least 3 orders of magnitude”, the “effect on Legionella” value is given as “the effect was observed” and the “growth of Legionella” value is reported as “greatly suppressed”.
iron (III) chloride hexahydrate: in experiment [2], the “effect on Legionella” value was “an effect was obtained” and the “growth of Legionella” value is recorded as “greatly suppressed”.
